# Reference: patent US5036097A, “Phenylbutyl nitrone compositions and methods for prevention of gastric ulceration” (Oklahoma Medical Research Foundation, priority 1990, dated 1991)
# Experiments:
# gastric ulceration = conditions: rats and mice; cited from earlier work
# [1] = tested on: gastric biopsies (lipid peroxidation); experiment: lipid peroxidation in stomachs (thiobarbituric acid reactivity of gastric punch biopsies); format: in vivo, rat; conditions: 4 h after piroxicam, P<0.05 vs vehicle (0.075±0.004)
# Excerpt: MEASUREMENT OF LIPID PEROXIDATION IN STOMACHS. Lipid peroxidation is studied in piroxicam-and vehicle-treated rat stomachs by measuring thiobarbituric acid (TBA) reactivity of gastric punch biopsies by the method of Buege and Aust Buege, J. A., Aust, S. D. Methods Enzymol 51:302-310 (1978). Four hours after piroxicam or vehicle, stomachs are opened along the radius of greater curvature, washed with ice cold normal saline, and spread along a flat surface with lumens exposed. Five punch biopsies from mucosal through serosal surfaces are taken from each stomach using a 3 mm diameter skin biopsy punch. Biopsies are taken over ulcers in piroxicam treated stomachs and randomly over gastric rugae (where ulcers occur) in vehicle control stomachs. Biopsies from each stomach are combined, homogenized on ice in 1 ml of cold 1.15% KCl, and mixed with 2 ml of TBA reagent (0.375% thiobarbituric acid and 15% trichloroacetic acid in 0.25 HCl, to which 0.01% butylated hydroxytoluene is added just prior to use). After incubation at 100° C. for 15 minutes, the mixture is cooled and centrifuged at 1,500 g for 10 min. The absorbance of the supernatant is measured at 532 nm, and results expressed as […] per stomach.
# prostaglandin synthesis = conditions: cited from earlier work
# [2] = tested on: gastric mucosal glutathione; experiment: glutathione in gastric mucosa; format: in vivo, rat; conditions: 4 h after piroxicam
# Procedure: MEASUREMENT OF GLUTATHIONE IN GASTRIC MUCOSA.
# Gastric mucosal glutathione is measured in piroxicam-and vehicle-treated rat stomachs. Four hours after piroxicam or vehicle, stomachs are opened, washed with ice cold saline, and spread along a flat surface with lumens exposed. The gastric mucosa is then removed by scraping with a surgical blade. The mucosa is homogenized on ice in 1 ml of 1.15% KCl. Two aliquots of 250 μl are snap frozen in liquid nitrogen and stored at -70° C. for later determination of total glutathione by the method of Anderson, M. E. Methods Enzymol 113:548-555 (1985) and protein by a modification of the Lowry method, described by Bennett, J. P. Techniques Lipid Membrane Biochem. B408:1-22 (1982), using bovine serum albumin as a standard. Results are expressed as nmole/mg protein. To measure oxidized glutathione (GSSG), the remaining 500 μl is mixed with an equal volume of N-ethylmaleimide (NEM) in water (10 mM final concentration of NEM), snap frozen and stored at -70° C. After thawing for analysis, this mixture is passed over a C-18 Sep-Pak column (Waters Associates, Milford, Mass.) and washed with 1 ml phosphate buffer (pH 7.5). This technique for removing excess NEM has been previously shown to result in >90% recovery of GSSG. GSSG is then assayed by the method used above to determine total glutathione.
# [3] = tested on: mitochondrial respiration; experiment: generation of O2- by mitochondrial respiration; format: biochemical, rat
# [4] = tested on: piroxicam-induced gastric ulcers; experiment: suppression of piroxicam-induced gastric ulcers by interventions (PBN, free radical scavengers, ascorbate); format: in vivo, rat (male Sprague-Dawley)
# Procedure: FIG. 2 is a graph of % control ulceration from piroxicam versus the % ulceration in the presence of free radical scavengers. The […] scavenger dimethylthiourea (DMTU, 500 mg/kg i.p.) was given 24 hours and 1 hour before piroxicam. […] The antioxidant butylated hydroxytoluene (BHT, 25 mg/kg/day i.p. in corn oil) was given for three days before and again 1 hour before piroxicam. The % control ulceration is determined by averaging the ratios of cm^2 ulceration in control stomachs from rats given piroxicam alone, and multiplying×100. +P< 0.01 compared to piroxicam alone.
# Male Sprague-Dawley rats (Charles River, Wilmington, Mass.) weighing 300-325 g were housed individually in wire bottomed cages to prevent ingestion of hair and feces. Animals were maintained without food for 48 hours and without water for 24 hours prior to each experiment. Piroxicam or aspirin and other NSAIDS were suspended in a vehicle of 1% carboxymethylcellulose, 0.1% Tween 80 and 0.15 M HCl, and administered in a volume of 1 ml on the morning of study by oral gavage using an 18 gauge curved blunt needle (Popper and Sons, New Hyde Park, N.Y.). One ml of vehicle alone was administered for control experiments. HCl was added to the vehicle to insure an acid environment in the stomach in all studies. […] Four hours after the administration of NSAID or vehicle, rats were euthanized with sodium pentobarbital (100 mg/kg IP), and the surface area of ulceration per stomach was quantitated using morphometric techniques. Stomachs were removed, the lumen was exposed by an incision along the radius of greater curvature, and the stomach was washed in phosphate buffered saline. The luminal surface was laid out on a flat surface with gross folds removed by gentle distension. The percentage of surface involved with submucosal hemorrhage was then determined by point counting, as described by Weibel, E. R. Stereological Methods: Practical Methods for Biological Morphometry. Academic Press, New York 1980. This was done by tabulation of the percentage of points over ulcerations using a point counting eyepiece graticle (16×16 points in a square format). At the 12X magnification used on the Wild dissecting microscope (Wild-Heerbrugg, Basel, Switzerland), the graticle covered a 1 cm^2 area of the surface. Four to five non-overlapping sampling sites were taken to fully cover the exposed surface. To determine the total luminal surface area, the outline of the outer boundary of the stomach was traced using a transparent acetate sheet, and the area was determined from planimetry. The surface area of ulcerated regions per stomach was then determined by multiplying the surface density of ulceration regions by the luminal surface area of the stomach.
# Differences in total luminal surface area in cm^2, surface area of ulcerated regions per stomach and biochemical analyses between each treatment intervention and its corresponding untreated control group are compared using the Mann-Whitney U Test, Dixon, W. J., Massey, F. J., Jr. Introduction to statistical methods, 4th edition. (New York: McGraw Hill, 1983). […] In vitro studies are compared using the Student's unpaired T-test, Dixon, W. J., Massey, F. J., Jr. Introduction to statistical methods, 4th edition. (New York: McGraw Hill, 1983). Values are expressed as mean±SEM. Significance is assumed when P<0.05.
# In each experiment, the surface area of gastric ulceration produced by piroxicam in 15 treated rats was compared to that in 15 rats of the same age and size that were fasted simultaneously but which received no intervention. Phenylbutyl nitrone (30 mg/kg) was given orally in water 1 hour before piroxicam and also added to vehicle when piroxicam was administered. When intervention were given with piroxicam, the pH of the final mixture was adjusted if necessary to equal that of piroxicam and vehicle alone.
# [5] = tested on: microsomal lipid peroxidation; experiment: microsomal lipid peroxidation (liver microsomes); format: biochemical; conditions: 200 μM piroxicam, rat liver microsomes
# Procedure: Studies of Microsomal Lipid Peroxidation. […] Rats are euthanized by CO2 narcosis. The livers are excised rapidly into cold isolation medium containing 0.1M sodium phosphate and 2 mM EDTA, pH 7.4. The tissue is minced and homogenized in 3 ml isolation medium per gram of tissue using a Potter-Elvehjam homogenizer. The homogenate is centrifuged at 17,800 g for 20 min., and the pellet discarded. The supernatant is recentrifuged at 100,000 g for 60 min. The resulting pellet is resuspended in isolation buffer and recentrifuged at 100,000 g for 40 min. The final pellet is resuspended in storage buffer containing 100 mM potassium phosphate, 20% glycerol, 1 mM EDTA, 1 mM DTT and 20 μM butylated hydroxytoluene, pH 7.25. This suspension is frozen under liquid nitrogen and stored at -70° CL until use. Microsomal protein is determined by a modification of the Lowry method of Anderson, M. E. Methods Enzymol 113:548-555 (1985). […] Lipid peroxidation in the 1 ml reaction mixture is measured by mixing with 2 ml TBA reagent and assaying for thiobarbituric acid reactivity by the method of Buege and Aust. Values are expressed as the increase in absorbance at 532 nm ([MUT]) per mg microsomal protein and represent the mean of three replicates.
compound,measurement,setting,value
CN1C(C(=O)Nc2ccccn2)=C(O)c2ccccc2S1(=O)=O [piroxicam],ulcerogenicity,gastric ulceration,highly ulcerogenic
same,"thiobarbituric acid reactivity, A532",[1],0.104±0.010 A532
same,inhibition of prostaglandin synthesis,prostaglandin synthesis,relative weak reversible inhibitor
same,total glutathione in gastric mucosa,[2]; difference vs vehicle not statistically significant,0.33±0.03 nmoles/mg protein
same,fraction of GSSG,"[2]; vehicle 6.4 0.7%, not statistically significant",8.9±0.9%
same,generation of O2- by mitochondrial respiration,[3],did not increase generation of O2 -
same,ulceration (ascorbate experiment),"[4]; ascorbate-treated stomachs (with piroxicam) vs piroxicam alone, P<0.001",0.031±0.009 cm^2
same,ulcerations/unit area,"[4]; piroxicam 23 mg/kg only, or plus PBN 30 mg/kg orally 1 hour before and with piroxicam, p<0.0052",0.229±0.145 ulcerations/unit area
same,NADPH-dependent microsomal lipid peroxidation,[5],no effect
